# pEC50: −log10 of the molar value.
# Test system: HCV 1b-377-neo replicon cells
# Assay: HCV Replicon assay, HCV 1b-377-neo replicon cells
# Type: cell-based, HCV 1b genotype
# Settings: Hepatitis C virus, read-out: EC50 against HCV 1b (Activity or Range)
# Description: An HCV Replicon assay was utilized in the present disclosure, and was prepared, conducted and validated as described in commonly owned PCT/US2006/022197 and in O'Boyle et. al. Antimicrob Agents Chemother. 2005 April; 49(4):1346-53.
# HCV 1b-377-neo replicon cells were used to test the currently described compound series as well as cells resistant to compound A containing a Y2065H mutation in NS5A (described in application PCT/US2006/022197). The compounds tested were determined to have more than 10-fold less inhibitory activity on cells containing the mutation than wild-type cells indicating a related mechanism of action between the two compound series. Thus, the compounds of the present disclosure can be effective to inhibit the function of the HCV NS5A protein and are understood to be as effective in combinations as previously described in application PCT/US2006/022197 and commonly owned WO/O4014852. Further, the compounds of the present disclosure can be effective against the HCV 1b genotype. It should also be understood that the compounds of the present disclosure can inhibit multiple genotypes of HCV. […] In one embodiment compounds of the present disclosure are active against the 1a, 1b, 2a, 2b, 3a, 4a, and 5a genotypes.
row,Compound,pEC50
1,CCN(CC)[C@@H](C(=O)N1CC(F)(F)C[C@H]1c1ncc(-c2ccc(-c3ccc4c(ccc5[nH]c([C@@H]6CCCN6C(=O)[C@@H](c6ccccc6)N(CC)CC)nc54)c3)cc2)[nH]1)c1ccccc1 [Example 22w.a],9.92
2,COC(=O)N[C@H](C(=O)N1CCC[C@H]1c1nc2c([nH]1)CCCc1cc(-c3ccc(-c4cnc([C@@H]5CCCN5C(C)=O)[nH]4)cc3)ccc1-2)C(C)C [Example 24],9.49

# Same assay, conditions: Hepatitis C virus, read-out: EC50 against HCV 1b (Activity or Range), range class
row,Compound,pEC50
1,COC(=O)N[C@H](C(=O)N1CC(F)(F)C[C@H]1c1ncc(-c2ccc(-c3ccc4c(ccc5[nH]c([C@@H]6CCCN6C(=O)[C@@H](NC(=O)OC)C(C)C)nc54)c3)cc2)[nH]1)C(C)C [Example 22w],10.00 to 12.00
2,COC(=O)N[C@H](C(=O)N1CCC[C@H]1c1ncc(-c2ccc(-c3ccc4c(c3)CCCCc3[nH]c([C@@H]5CCCN5C(=O)[C@@H](NC(=O)OC)C(C)C)nc3-4)cc2)[nH]1)C(C)C [Example 22x.1],10.00 to 12.00
3,CCN(CC)[C@@H](C(=O)N1CCC[C@H]1c1ncc(-c2ccc(-c3ccc4c(c3)CCCCc3[nH]c([C@@H]5CCCN5C(=O)[C@@H](c5ccccc5)N(CC)CC)nc3-4)cc2)[nH]1)c1ccccc1 [Example 22x.1a],10.00 to 12.00
4,CCN(CC)[C@@H](C(=O)N1CCC[C@H]1c1nc2c(ccc3cc(-c4ccc5c(ccc6nc([C@@H]7CCCN7C(=O)[C@@H](NC(=O)OC)C(C)C)[nH]c65)c4)ccc32)[nH]1)c1ccccc1 [Example 24.1],10.00 to 12.00
5,COC(=O)N[C@H](C(=O)N1CCC[C@H]1c1nc2ccc3cc(-c4ccc5c(ccc6[nH]c([C@@H]7CCCN7C(=O)[C@H](NC(=O)OC)c7ccccc7)nc65)c4)ccc3c2[nH]1)C(C)C [Example 24.1a],10.00 to 12.00
6,COC(=O)N[C@H](C(=O)N1CCC[C@H]1c1nc2ccc3cc(-c4ccc5c(ccc6[nH]c([C@@H]7CCCN7C(=O)[C@@H](NC(=O)OC)C7CCOCC7)nc65)c4)ccc3c2[nH]1)C(C)C [Example 24.1b],10.00 to 12.00
7,COC(=O)N[C@H](C(=O)N1CCC[C@H]1c1nc2ccc3cc(-c4ccc5c(ccc6[nH]c([C@@H]7CCCN7C(=O)[C@H](O)c7ccccc7)nc65)c4)ccc3c2[nH]1)C(C)C [Example 24.1d],10.00 to 12.00
8,CCN(CC)[C@@H](C(=O)N1[C@@H]2C[C@@H]2C[C@H]1c1nc2c(ccc3cc(-c4ccc5c(ccc6nc([C@@H]7C[C@H]8C[C@H]8N7C(=O)[C@@H](NC(=O)OC)C(C)C)[nH]c65)c4)ccc32)[nH]1)c1ccccc1 [Example 24.2],10.00 to 12.00
9,COC(=O)N[C@H](C(=O)N1[C@@H]2C[C@@H]2C[C@H]1c1nc2ccc3cc(-c4ccc5c(ccc6[nH]c([C@@H]7C[C@H]8C[C@H]8N7C(=O)[C@H](NC(=O)OC)c7ccccc7)nc65)c4)ccc3c2[nH]1)C(C)C [Example 24.2a],10.00 to 12.00
10,COC(=O)N[C@H](C(=O)N1[C@@H]2C[C@@H]2C[C@H]1c1nc2ccc3cc(-c4ccc5c(ccc6[nH]c([C@@H]7C[C@H]8C[C@H]8N7C(=O)[C@@H](NC(=O)OC)C7CCOCC7)nc65)c4)ccc3c2[nH]1)C(C)C [Example 24.2b],10.00 to 12.00
11,COC(=O)N[C@H](C(=O)N1[C@@H]2C[C@@H]2C[C@H]1c1nc2ccc3cc(-c4ccc5c(ccc6[nH]c([C@@H]7C[C@H]8C[C@H]8N7C(=O)C(c7ccccc7)N7C8CCC7CC8)nc65)c4)ccc3c2[nH]1)C(C)C (stereo partly drawn) [Example 24.2d],10.00 to 12.00
12,COC(=O)N[C@H](C(=O)N1CCC[C@H]1c1nc2c([nH]1)CCCc1cc(-c3ccc(-c4cnc([C@@H]5CCCN5C(=O)CN(C)C)[nH]4)cc3)ccc1-2)C(C)C [Example 24.a],10.00 to 12.00
13,COC(=O)N[C@@H](C)C(=O)N1CCC[C@H]1c1ncc(-c2ccc(-c3ccc4c(c3)CCCc3[nH]c([C@@H]5CCCN5C(=O)[C@@H](NC(=O)OC)C(C)C)nc3-4)cc2)[nH]1 [Example 24.b],10.00 to 12.00

# — patent US8147818B2, “Hepatitis C virus inhibitors” (Bristol-Myers Squibb Company, priority 2008, dated 2012)
